Experimental data: paper PMC7586386, “Discovery of Covalent Inhibitors Targeting the Transcriptional Enhanced Associate Domain Central Pocket” (Journal of Medicinal Chemistry, 2020)

Key:
Ser mutant of mTEAD4 = biological target: T1, Ser mutant of mTEAD4 (Mus musculus, UniProt Q62296, C360S); test: Thiol conjugation assay with cysteine mutant; assay type: binding; conditions: 10 μM compound
T1 construct: His (N); made in house
Method: (§1) To serially diluted solutions of the tested compounds in 5 μL of assay buffer [HEPES (25 mM) and NaCl (150 mM) pH 6.5], freshly prepared 5 μL of 0.45 μM protein solution was added and incubated at room temperature for 10 min, followed by addition of 5 μL of 0.45 μM CPM solution, giving a 15 μL final assay volume, 150 nM protein, and 150 nM CPM. The assay plate was shaken at room temperature for 1 h before measuring the fluorescence (Ex/Em: 380/470 nm). Compound 19 was used as an internal standard to determine 100% inhibition.

Ala mutant of mTEAD4 = biological target: T2, Ala mutant of mTEAD4 (Mus musculus, UniProt Q62296, C360A); test: Thiol conjugation assay with cysteine mutant; assay type: binding; conditions: 10 μM compound
T2 construct: N-terminal His6- and MBP-tagged mTEAD4^209–427 with Cys360Ala mutation; made in house; host or cells: E. coli BL21-CodonPlus (DE3)-RIPL
Method: as §1

hTEAD4 (nonacylated) [1] = biological target: T3, hTEAD4 (nonacylated) (Homo sapiens, UniProt Q15561); test: Differential scanning fluorimetry; assay type: binding; conditions: 20 μM protein, 80 μM inhibitor; value is a decrease
T3 construct: N-terminal His6-tagged hTEAD4^217–434 was subcloned; made in house; host or cells: Escherichia coli BL21-CodonPlus (DE3)-RIPL
Method: Nonacylated hTEAD4 (20 μM) was incubated in the absence or presence of inhibitors (80 μM) at 25 °C for 10 min. Then, SYPRO orange (Sigma-Aldrich) at a final concentration of 5× was added and the mixture was heated at a ramp rate of 1 °C/min in a qPCR machine (Applied Biosystems). The derivative of the SYPRO orange fluorescent intensity is plotted as a function of temperature.

hTEAD4 (nonacylated) [2] = biological target: T3, hTEAD4 (nonacylated); test: Time-dependent inhibition, thiol conjugation assay; assay type: binding
Method: as §1
(§2) TDI of hTEAD4 (nonacylated) by compound 19 was monitored in FP (central pocket binding) and thiol conjugation assays at 5–7 different concentrations (0.15–40 μM) following 1, 2, 4, and 24 h incubation at 4 °C (mean ± SD; n = 2). By fitting the percent of inhibition versus preincubation time at different concentrations, kobs was calculated. Next, kobs was plotted against concentration and was further fitted to a nonlinear regression model to determine the kinetic parameters of covalent inhibition of hTEAD4, where plateau is showing kinact (min^–1) and t1/2 is Ki (μM).

hTEAD2 = biological target: T4, hTEAD2 (Homo sapiens, UniProt Q15562); test: Thiol conjugation assay, TEAD homologues; assay type: binding; conditions: read-out: TEAD2 IC50
T4 construct: N-terminal His6-tagged hTEAD4^217–447 was subcloned; His6 (N); made in house; host or cells: E. coli (as described for N-His hTEAD4)
Method: as §1

hTEAD3 = biological target: T5, hTEAD3 (Homo sapiens, UniProt Q99594); test: Thiol conjugation assay, TEAD homologues; assay type: binding; conditions: read-out: TEAD3 IC50
T5 construct: N-terminal His6-tagged hTEAD4^216–434 was expressed; His6 (N); made in house
Method: as §1

hTEAD4 (nonacylated) [3] = biological target: T3, hTEAD4 (nonacylated); test: Time-dependent inhibition, FP (central pocket binding) assay
Method: To serially diluted solution of the tested compounds in 5 μL assay buffer [HEPES (25 mM) and NaCl (150 mM), pH 6.5 buffer], freshly prepared 5 μL of 0.15 μM protein solution was added and incubated at room temperature for 10 min followed by 5 μL of 30 nM FITC-palmitate solution, giving 15 μL final assay volume, 50 nM protein, and 10 nM tracer. The assay plate was shaken at room temperature for 1 h before measuring the FP (Ex/Em: 485/535 nm).
as §2

mTEAD4 (nonacylated) = biological target: T6, mTEAD4 (nonacylated) (Mus musculus, UniProt Q62296); test: 1H–15N HSQC NMR; assay type: binding; conditions: 0.5 mM compound, versus DMSO
T6 construct: made in house
Method: The ^13C/^15N-labeled mTEAD4 was prepared following a protocol established earlier,[45] and the protein was deacylated as described above for hTEAD4. ^1H–^15N HSQC spectra in the presence of DMSO or the test compound (0.5 mM) were collected at 37 °C on a Bruker 600 MHz magnet equipped with a cryoprobe in 20 mM HEPES, pH 7.3 buffer containing 150 mM NaCl and 1 mM DTT. The spectra were processed and overlaid.

[4] = Assay media stability (HPLC); assay type: physicochemical
Method: The compounds were incubated in MES (25 mM), pH 6.5 buffer or HEPES (25 mM) and NaCl (150 mM) pH 6.5 buffer for an hour at room temperature before injecting into a reverse-phase HPLC system (ThermoScientific_Ultimate 3000) equipped with a C18 column (2/50 Nucleodur C18 gravity 1.8 μm von Macherey-Nagel).

[5] = biological target: T7, mTEAD4 Cys360Ala with YAP (Mus musculus, UniProt Q62296, C360A); test: FP-based competitive TEAD–YAP interaction assay (FITC-hYAP50–100); assay type: binding
T7 construct: N-terminal His6- and MBP-tagged mTEAD4^209–427 with Cys360Ala mutation; made in house; host or cells: E. coli BL21-CodonPlus (DE3)-RIPL
Method: (§3) All the TEAD–YAP binding experiments were performed in phosphate-buffered saline (PBS) (pH 7.5).
(§4) To serially diluted solution of the tested compounds in 5 μL of PBS, freshly prepared 5 μL of protein solution was added and incubated at room temperature for 10 min followed by addition of 5 μL of FAM-YAP^50–100 solution. The assay plate was shaken at room temperature for 1 h before measuring the FP (Ex/Em: 485/535 nm). Final protein and FAM concentrations are as follows (FAM/protein): hTEAD4 (nonacylated): 2 nM/5 nM, hTEAD4 (acylated): 3 nM/15 nM, mTEAD4_Cys360Ser: 10 nM/50 nM, and mTEAD4_Cys360Ala: 10 nM/50 nM.

[6] = biological target: T8, hTEAD4 (acylated) with YAP (Homo sapiens, UniProt Q15561); test: as above; assay type: binding
T8 construct: N-terminal His6-tagged hTEAD4^217–434 was subcloned; made in house; host or cells: Escherichia coli BL21-CodonPlus (DE3)-RIPL
Method: as §3, §4

[7] = biological target: T9, mTEAD4 Cys360Ser with YAP (Mus musculus, UniProt Q62296, C360S); test: as above; assay type: binding
T9 construct: His (N); made in house
Method: as §3, §4

T3 sequence (Q15561 217-434): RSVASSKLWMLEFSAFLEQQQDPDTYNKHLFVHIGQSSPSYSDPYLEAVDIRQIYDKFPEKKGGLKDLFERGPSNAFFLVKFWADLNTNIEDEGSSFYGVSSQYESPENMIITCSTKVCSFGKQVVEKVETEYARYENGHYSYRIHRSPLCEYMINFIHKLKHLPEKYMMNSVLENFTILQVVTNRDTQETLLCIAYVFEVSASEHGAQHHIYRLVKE
T4 sequence (Q15562 217-447): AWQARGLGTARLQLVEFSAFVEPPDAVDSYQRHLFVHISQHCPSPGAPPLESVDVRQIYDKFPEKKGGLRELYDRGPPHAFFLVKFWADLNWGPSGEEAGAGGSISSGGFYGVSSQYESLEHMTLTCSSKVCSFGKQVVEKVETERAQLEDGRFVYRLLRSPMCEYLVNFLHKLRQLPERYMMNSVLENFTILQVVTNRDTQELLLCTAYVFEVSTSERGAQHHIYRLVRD
T9 sequence (Q62296 210-427 C360S limits assumed): as the sequence (Q15561 217-434) above, with V3I, Q19R, G35S, A48T, D67E, E91D, S96A, S142L, C151S counted along it
T8 sequence (Q15561 217-434): as the sequence (Q15561 217-434) above
T2 sequence (Q62296 209-427 C360A): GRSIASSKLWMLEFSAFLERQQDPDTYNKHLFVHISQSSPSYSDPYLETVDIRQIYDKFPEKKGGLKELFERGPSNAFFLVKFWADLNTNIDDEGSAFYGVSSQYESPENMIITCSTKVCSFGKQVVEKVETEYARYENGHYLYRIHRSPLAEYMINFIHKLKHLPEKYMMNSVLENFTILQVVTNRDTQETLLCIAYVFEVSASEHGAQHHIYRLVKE
T7 sequence (Q62296 209-427 C360A): as above
T5 sequence (Q99594 216-434): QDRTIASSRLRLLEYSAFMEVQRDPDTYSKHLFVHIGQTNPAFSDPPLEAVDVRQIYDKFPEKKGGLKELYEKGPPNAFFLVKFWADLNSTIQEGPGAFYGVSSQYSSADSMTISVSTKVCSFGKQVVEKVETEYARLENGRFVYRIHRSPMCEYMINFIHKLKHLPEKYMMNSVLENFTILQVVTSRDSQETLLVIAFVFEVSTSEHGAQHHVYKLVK
T1 sequence (Q62296 whole entry C360S): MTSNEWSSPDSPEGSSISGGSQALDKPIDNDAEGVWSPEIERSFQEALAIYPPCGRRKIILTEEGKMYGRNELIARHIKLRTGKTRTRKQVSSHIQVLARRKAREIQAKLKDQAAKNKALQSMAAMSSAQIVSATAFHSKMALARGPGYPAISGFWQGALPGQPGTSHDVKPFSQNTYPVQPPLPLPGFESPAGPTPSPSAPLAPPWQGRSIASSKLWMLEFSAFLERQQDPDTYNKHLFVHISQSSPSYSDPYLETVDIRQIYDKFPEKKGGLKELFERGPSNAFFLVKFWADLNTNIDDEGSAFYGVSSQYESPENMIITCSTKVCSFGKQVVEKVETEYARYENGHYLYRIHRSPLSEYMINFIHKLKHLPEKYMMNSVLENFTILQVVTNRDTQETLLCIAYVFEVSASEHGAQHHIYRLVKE
T6 sequence (Q62296 210-427 limits assumed): as the sequence (Q15561 217-434) above, with V3I, Q19R, G35S, A48T, D67E, E91D, S96A, S142L counted along it

Compound: O=c1cc(CO)oc(C(Nc2ccccc2)c2ccccc2)c1O (stereo not shown) [Compound 19, 3-Hydroxy-6-(hydroxymethyl)-2-(phenyl(phenylamino)methyl)-4H-pyran-4-one]
- inhibition of the increase in fluorescence signal (Ser mutant of mTEAD4): cannot inhibit
- inhibition of the increase in fluorescence signal (Ala mutant of mTEAD4): cannot inhibit
- lowering of the melting point (Tm) (hTEAD4 (nonacylated) [1]): 5 °C
- kinact (hTEAD4 (nonacylated) [2]; supplementary CSV): 0.000333 s⁻¹
- kinact/KI (hTEAD4 (nonacylated) [2]; thiol conjugation assay): 138 M⁻¹ s⁻¹
- IC50 (hTEAD2): 6.9 µM
- IC50 (hTEAD3): 4.6 µM
- kinact/KI (hTEAD4 (nonacylated) [3]; FP assay): 66.7 M⁻¹ s⁻¹
- kinact (hTEAD4 (nonacylated) [3]; FP, read-out: kinact (converted)): 0.0015 s⁻¹
- kinact (hTEAD4 (nonacylated) [3]; supplementary CSV, read-out: Kinact Fluorescence Polarization (converted)): 0.00015 s⁻¹
- effect on 1H–15N HSQC spectrum (mTEAD4 (nonacylated)): induced line broadening of several residues
- stability in assay medium ([4]; HEPES buffer (pH 6.5), 1 h): appearance of two small peaks was detected
- stability in assay medium ([4]; MES buffer, pH 6.5, 1 h, rt): stable
- inhibition of the interaction of YAP with TEAD [5]: did not inhibit
- inhibition of the interaction of YAP with TEAD [6]: did not inhibit
- inhibition of the interaction of YAP with TEAD [7]: did not inhibit
